# Data as given in patent US11878049B1, “Mitapivat therapy and modulators of cytochrome P450” (Agios Pharmaceuticals, Inc., priority 2019, dated 2024).
# Columns and labels:
# Format in all cases: in vitro ADME
# [1] = target: T1, breast cancer resistance protein (BCRP) (Homo sapiens, UniProt Q9UNQ0); assay: Transporter inhibition
# T1 sequence (Q9UNQ0 1-655): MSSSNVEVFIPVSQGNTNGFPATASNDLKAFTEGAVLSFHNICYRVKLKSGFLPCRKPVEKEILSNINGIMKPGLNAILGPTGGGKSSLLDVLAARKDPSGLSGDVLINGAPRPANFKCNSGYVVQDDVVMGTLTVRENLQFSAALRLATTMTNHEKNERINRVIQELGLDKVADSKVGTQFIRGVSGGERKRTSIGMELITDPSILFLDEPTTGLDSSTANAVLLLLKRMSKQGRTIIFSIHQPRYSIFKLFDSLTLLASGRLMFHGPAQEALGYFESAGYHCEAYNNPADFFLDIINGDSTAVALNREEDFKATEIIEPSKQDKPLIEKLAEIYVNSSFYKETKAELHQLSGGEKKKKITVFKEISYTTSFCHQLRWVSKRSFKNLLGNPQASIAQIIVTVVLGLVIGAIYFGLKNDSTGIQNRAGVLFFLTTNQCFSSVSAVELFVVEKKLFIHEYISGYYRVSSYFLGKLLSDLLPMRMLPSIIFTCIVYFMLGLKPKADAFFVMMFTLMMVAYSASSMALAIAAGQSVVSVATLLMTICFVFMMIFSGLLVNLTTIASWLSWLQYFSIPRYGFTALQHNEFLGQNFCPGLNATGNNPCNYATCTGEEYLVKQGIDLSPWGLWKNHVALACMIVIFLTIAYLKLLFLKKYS
# P-gp = P-gp (Homo sapiens, UniProt P08183); assay: Transporter inhibition
# Chain of P-gp (P08183 whole entry): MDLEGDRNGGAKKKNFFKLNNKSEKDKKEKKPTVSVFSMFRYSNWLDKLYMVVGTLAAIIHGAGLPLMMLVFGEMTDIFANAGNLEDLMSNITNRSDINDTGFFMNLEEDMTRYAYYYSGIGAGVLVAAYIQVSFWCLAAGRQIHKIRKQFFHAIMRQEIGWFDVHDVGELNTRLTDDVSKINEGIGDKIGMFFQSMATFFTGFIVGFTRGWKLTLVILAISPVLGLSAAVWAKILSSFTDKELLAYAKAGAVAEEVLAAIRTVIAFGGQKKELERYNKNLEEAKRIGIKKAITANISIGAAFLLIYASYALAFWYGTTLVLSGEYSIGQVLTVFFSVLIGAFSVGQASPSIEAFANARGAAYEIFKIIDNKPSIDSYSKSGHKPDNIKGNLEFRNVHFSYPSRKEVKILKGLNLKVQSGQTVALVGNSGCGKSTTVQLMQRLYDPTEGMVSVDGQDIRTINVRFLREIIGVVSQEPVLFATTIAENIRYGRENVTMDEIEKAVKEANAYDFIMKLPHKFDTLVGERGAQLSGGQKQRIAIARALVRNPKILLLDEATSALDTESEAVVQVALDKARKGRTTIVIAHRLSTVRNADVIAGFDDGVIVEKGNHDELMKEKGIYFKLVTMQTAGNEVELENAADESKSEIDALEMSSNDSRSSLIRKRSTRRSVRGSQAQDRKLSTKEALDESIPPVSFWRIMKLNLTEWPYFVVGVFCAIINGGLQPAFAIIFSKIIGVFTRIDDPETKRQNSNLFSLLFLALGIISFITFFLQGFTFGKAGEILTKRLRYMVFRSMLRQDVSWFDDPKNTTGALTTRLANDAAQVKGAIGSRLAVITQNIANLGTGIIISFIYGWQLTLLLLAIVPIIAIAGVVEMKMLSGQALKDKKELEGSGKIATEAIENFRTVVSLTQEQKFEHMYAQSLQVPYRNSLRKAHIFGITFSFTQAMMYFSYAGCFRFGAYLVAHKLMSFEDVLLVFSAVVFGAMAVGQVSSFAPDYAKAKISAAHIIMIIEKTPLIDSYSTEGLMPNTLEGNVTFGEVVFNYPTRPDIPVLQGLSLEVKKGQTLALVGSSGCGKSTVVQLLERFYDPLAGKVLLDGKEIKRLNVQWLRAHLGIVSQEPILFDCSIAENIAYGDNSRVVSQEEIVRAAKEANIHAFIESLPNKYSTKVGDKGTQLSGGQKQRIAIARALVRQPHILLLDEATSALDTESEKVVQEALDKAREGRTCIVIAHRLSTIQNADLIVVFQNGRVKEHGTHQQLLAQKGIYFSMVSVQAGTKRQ
# CYP3A4/5 = assay: CYP-enzyme phenotyping using human liver microsomes and recombinant CYP enzymes
# CYP2C9 = CYP2C9 (Homo sapiens, UniProt P11712); assay: as above; design: CYP-enzyme phenotyping using human liver microsomes and recombinant CYP enzymes; from tissue; host or cells: human liver microsomes
# Chain of CYP2C9 (P11712 whole entry): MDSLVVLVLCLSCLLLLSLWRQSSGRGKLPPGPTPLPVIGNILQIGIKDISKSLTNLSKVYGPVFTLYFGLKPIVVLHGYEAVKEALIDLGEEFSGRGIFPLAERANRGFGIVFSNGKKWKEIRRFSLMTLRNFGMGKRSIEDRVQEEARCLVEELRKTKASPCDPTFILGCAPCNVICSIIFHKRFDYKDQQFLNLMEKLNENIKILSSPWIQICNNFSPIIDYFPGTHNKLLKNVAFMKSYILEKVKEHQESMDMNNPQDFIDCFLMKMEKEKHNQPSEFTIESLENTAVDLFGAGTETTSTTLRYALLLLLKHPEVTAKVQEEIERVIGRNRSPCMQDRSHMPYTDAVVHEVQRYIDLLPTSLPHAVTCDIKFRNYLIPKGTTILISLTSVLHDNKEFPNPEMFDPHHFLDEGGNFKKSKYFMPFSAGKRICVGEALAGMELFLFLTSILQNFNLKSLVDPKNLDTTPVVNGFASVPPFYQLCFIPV
# CYP2C8 = CYP2C8 (Homo sapiens, UniProt P10632); assay: as above; design: CYP-enzyme phenotyping using human liver microsomes and recombinant CYP enzymes; from tissue; host or cells: human liver microsomes
# Chain of CYP2C8 (P10632 whole entry): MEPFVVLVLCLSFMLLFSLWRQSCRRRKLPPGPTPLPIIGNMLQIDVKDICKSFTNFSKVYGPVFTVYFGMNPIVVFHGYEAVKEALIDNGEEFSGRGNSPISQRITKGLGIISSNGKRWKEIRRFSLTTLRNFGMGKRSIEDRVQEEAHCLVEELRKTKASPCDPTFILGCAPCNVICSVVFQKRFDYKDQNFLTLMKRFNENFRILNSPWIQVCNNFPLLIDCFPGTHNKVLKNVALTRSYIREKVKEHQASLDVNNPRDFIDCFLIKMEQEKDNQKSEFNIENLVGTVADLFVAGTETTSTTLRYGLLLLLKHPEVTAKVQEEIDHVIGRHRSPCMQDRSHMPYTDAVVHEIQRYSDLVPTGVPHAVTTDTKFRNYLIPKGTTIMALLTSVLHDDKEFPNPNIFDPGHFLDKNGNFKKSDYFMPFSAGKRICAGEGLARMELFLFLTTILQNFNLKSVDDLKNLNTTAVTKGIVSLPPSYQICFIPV
# CYP1A2 = target: T2, CYP1A2 (Homo sapiens, UniProt P05177); assay: as above
# T2 construct: CYP-enzyme phenotyping using human liver microsomes and recombinant CYP enzymes; from tissue; host or cells: human liver microsomes
# T2 sequence (P05177 whole entry): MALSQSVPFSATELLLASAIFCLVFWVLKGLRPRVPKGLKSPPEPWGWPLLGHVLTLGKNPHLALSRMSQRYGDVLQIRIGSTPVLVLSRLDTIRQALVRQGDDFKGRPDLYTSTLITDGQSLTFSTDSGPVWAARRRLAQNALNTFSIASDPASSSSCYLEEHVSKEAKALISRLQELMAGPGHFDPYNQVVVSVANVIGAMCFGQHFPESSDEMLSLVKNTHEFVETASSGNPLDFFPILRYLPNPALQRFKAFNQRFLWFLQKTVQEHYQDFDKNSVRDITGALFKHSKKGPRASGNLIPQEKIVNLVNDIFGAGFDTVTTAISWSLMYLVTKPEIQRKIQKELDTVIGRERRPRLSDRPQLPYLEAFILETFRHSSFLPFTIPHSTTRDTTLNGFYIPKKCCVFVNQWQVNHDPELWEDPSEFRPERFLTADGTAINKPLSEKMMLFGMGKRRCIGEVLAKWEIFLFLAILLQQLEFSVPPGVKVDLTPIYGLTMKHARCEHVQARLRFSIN
Inhibitor for BCRP [1],Inhibitor for P-gp (P-gp),Share of metabolism by CYP3A4/5 (primarily metabolized by) (CYP3A4/5) [%],Contribution of CYP2C9 to metabolism (CYP2C9),Contribution of CYP2C8 to metabolism (CYP2C8),Contribution of CYP1A2 to metabolism (CYP1A2),SMILES
not an inhibitor,not an inhibitor,,,,,O=C(c1ccc(NS(=O)(=O)c2cccc3cccnc23)cc1)N1CCNCC1 [Metabolite]
,,> 90,minor contributions,minor contributions,minor contributions,"O=C(c1ccc(NS(=O)(=O)c2cccc3cccnc23)cc1)N1CCN(CC2CC2)CC1 [Mitapivat, N-(4-(4-(cyclopropylmethyl)piperazine-1-carbonyl)phenyl)quinoline-8-sulfonamide]"
